# Laboratory results as given in ChEMBL document CHEMBL3045253, “Synthesis and in vitro antiproliferative activity of diphenyl(sulphonylpiperidin-4-yl)methanol derivatives” (Med Chem Res, 2010).
# Columns and labels:
# HeLa = test: Cytotoxicity against Homo sapiens (human) HeLa cells assessed as survival at 100 uM after 24 hr by MTT assay relative to control; format: functional; conditions: read-out: Survival
# HepG2 = test: Cytotoxicity against Homo sapiens (human) HepG2 cells assessed as survival at 100 uM after 24 hr by MTT assay relative to control; format: functional; conditions: HepG2, 24 h, read-out: Survival
# HT-29 = test: Cytotoxicity against Homo sapiens (human) HT-29 cells assessed as survival at 100 uM after 24 hr by MTT assay relative to control; format: functional; conditions: HT-29, 24 h, read-out: Survival
# MCF7 = test: Cytotoxicity against Homo sapiens (human) MCF7 cells assessed as survival at 100 uM after 24 hr by MTT assay relative to control; format: functional; conditions: MCF7, 24 h, read-out: Survival
# [1] = Cytotoxicity against Homo sapiens (human) NF103 cells assessed as survival at 100 uM after 24 hr by MTT assay relative to control; format: cell-based; conditions: read-out: Survival
SMILES,viability at 100 µM (HeLa) [%],viability at 100 µM (HepG2) [%],viability at 100 µM (HT-29) [%],viability at 100 µM (MCF7) [%],"viability at 24 h, 100 µM [1] [%]"
O=S(=O)(c1ccc(Cl)cc1)N1CCC(C(O)(c2ccccc2)c2ccccc2)CC1,49.7,52.2,69.6,61.4,53
O=[N+]([O-])c1ccccc1S(=O)(=O)N1CCC(C(O)(c2ccccc2)c2ccccc2)CC1,64.3,57.2,78.5,73.8,63.4
O=[N+]([O-])c1cccc(S(=O)(=O)N2CCC(C(O)(c3ccccc3)c3ccccc3)CC2)c1,70.3,64.2,75,63.4,57.4
O=[N+]([O-])c1ccc(S(=O)(=O)N2CCC(C(O)(c3ccccc3)c3ccccc3)CC2)cc1,54,68.7,70.8,69.8,53.6
Cc1ccc(S(=O)(=O)N2CCC(C(O)(c3ccccc3)c3ccccc3)CC2)cc1,71.2,62.7,45.1,70.2,65.6
Cc1noc(C)c1S(=O)(=O)N1CCC(C(O)(c2ccccc2)c2ccccc2)CC1,39.9,52.2,73.6,38.7,53.8
CS(=O)(=O)N1CCC(C(O)(c2ccccc2)c2ccccc2)CC1,64.4,60.9,74.7,60.5,64
O=S(=O)(c1ccccc1)N1CCC(C(O)(c2ccccc2)c2ccccc2)CC1,68.3,68.3,73.9,65.8,63
CCCc1ccc(S(=O)(=O)N2CCC(C(O)(c3ccccc3)c3ccccc3)CC2)cc1,73.1,62.6,74.2,68.7,60
CC(C)S(=O)(=O)N1CCC(C(O)(c2ccccc2)c2ccccc2)CC1,78.5,64.7,77.6,70.5,60
O=S(=O)(c1ccc(Cl)cc1F)N1CCC(C(O)(c2ccccc2)c2ccccc2)CC1,39.2,46.3,47.2,44.2,51.8
O=S(=O)(CCl)N1CCC(C(O)(c2ccccc2)c2ccccc2)CC1,56.1,59.1,45.2,66,53.5
O=S(=O)(Cc1ccccc1)N1CCC(C(O)(c2ccccc2)c2ccccc2)CC1,70.1,39.1,76.5,69.7,59.8
